Test results: ChEMBL document CHEMBL1909046, “DrugMatrix in vitro pharmacology data”

Columns and labels:
[1] = DRUGMATRIX: Glutamate, NMDA, Phencyclidine radioligand binding (ligand: [3H] TCP); type: cell membranes, Rattus norvegicus, Wistar, Cerebral cortex, Membrane; settings: Not Active = under 50% inhibition at 10 µM
[2] = target: Sodium-dependent dopamine transporter (Homo sapiens, UniProt Q01959); test: DRUGMATRIX: Dopamine Transporter radioligand binding (ligand: [125I] RTI-55); type: cell membranes, CHO-K1, Membrane; settings: cho-k1; Not Active = under 50% inhibition at 10 µM
Sequence of Sodium-dependent dopamine transporter (Q01959 whole entry): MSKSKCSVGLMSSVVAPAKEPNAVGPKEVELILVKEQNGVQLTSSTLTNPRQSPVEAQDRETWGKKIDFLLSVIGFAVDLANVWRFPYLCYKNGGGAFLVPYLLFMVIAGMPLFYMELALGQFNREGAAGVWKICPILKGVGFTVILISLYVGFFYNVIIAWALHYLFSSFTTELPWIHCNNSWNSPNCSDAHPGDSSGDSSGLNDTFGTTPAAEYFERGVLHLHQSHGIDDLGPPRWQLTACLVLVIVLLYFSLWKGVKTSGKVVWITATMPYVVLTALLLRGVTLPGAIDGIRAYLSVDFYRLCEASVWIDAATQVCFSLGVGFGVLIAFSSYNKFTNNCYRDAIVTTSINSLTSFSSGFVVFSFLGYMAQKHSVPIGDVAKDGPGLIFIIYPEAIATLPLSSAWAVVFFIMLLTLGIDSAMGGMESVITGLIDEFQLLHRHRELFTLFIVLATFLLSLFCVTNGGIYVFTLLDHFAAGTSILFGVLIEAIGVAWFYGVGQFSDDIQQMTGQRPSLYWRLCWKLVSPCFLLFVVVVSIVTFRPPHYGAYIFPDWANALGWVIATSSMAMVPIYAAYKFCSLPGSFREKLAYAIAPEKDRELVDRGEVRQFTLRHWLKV

[3] = DRUGMATRIX: Tumor Necrosis Factor (TNF), Non-Selective radioligand binding (ligand: [125I] TNF-alpha); type: cell membranes, Membrane; settings: u-937; Not Active = under 50% inhibition at 10 µM
[4] = target: Cytochrome P450 2C19 (Homo sapiens, UniProt P33261); settings: bti-tn-5b1-4; note: in other assays of this panel Not Active means under 50% inhibition at 10 µM
Sequence of Cytochrome P450 2C19 (P33261 whole entry): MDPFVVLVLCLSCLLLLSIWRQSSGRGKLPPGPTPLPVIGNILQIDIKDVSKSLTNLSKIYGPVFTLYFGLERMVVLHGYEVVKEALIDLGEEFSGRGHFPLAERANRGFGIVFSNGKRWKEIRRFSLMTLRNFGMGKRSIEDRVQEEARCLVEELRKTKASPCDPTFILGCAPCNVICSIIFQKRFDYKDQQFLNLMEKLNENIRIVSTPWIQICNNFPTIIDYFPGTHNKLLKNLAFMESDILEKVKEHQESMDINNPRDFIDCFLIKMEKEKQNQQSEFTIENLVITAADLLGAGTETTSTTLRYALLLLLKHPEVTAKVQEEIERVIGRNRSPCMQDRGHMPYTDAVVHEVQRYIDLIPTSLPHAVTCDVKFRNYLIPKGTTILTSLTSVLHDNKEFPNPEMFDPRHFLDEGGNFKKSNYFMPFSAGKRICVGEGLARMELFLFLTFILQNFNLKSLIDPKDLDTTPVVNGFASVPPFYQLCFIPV

[5] = DRUGMATRIX: Platelet-Derived Growth Factor (PDGF) radioligand binding (ligand: [125I] PDGF); type: cell-based; settings: nih3t3; Not Active = under 50% inhibition at 10 µM
[6] = target: D(1A) dopamine receptor (Homo sapiens, UniProt P21728); test: DRUGMATRIX: Dopamine D1 radioligand binding (ligand: [3H] SCH-23390); type: cell membranes, CHO, Membrane; settings: cho; Not Active = under 50% inhibition at 10 µM
Sequence of D(1A) dopamine receptor (P21728 whole entry): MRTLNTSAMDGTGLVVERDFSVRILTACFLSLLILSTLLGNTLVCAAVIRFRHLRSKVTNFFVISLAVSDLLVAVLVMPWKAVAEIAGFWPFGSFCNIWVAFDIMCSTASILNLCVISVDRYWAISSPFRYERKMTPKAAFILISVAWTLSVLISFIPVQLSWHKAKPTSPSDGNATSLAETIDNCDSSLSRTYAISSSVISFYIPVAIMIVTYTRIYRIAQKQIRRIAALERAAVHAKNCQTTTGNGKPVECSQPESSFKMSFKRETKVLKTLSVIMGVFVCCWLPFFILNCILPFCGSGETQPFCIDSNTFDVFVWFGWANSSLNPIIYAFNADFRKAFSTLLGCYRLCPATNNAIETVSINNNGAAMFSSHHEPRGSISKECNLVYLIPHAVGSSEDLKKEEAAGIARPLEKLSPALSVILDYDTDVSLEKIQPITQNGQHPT

[7] = DRUGMATRIX: Purinergic P2X radioligand binding (ligand: [3H] alpha, beta-Methylene-ATP); type: cell membranes, Oryctolagus cuniculus, New Zealand albino, Urinary bladder, Membrane; settings: Not Active = under 50% inhibition at 10 µM
[8] = DRUGMATRIX: Phosphodiesterase PDE4 enzyme inhibition (substrate: [3H]cAMP + cAMP); settings: u-937; Not Active = under 50% inhibition at 10 µM
[9] = DRUGMATRIX: GABAA, Chloride Channel, TBOB radioligand binding (ligand: [3H] TBOB); type: cell membranes, Rattus norvegicus, Wistar, Cerebral cortex, Membrane; settings: Not Active = under 50% inhibition at 10 µM

ZIRCONIUM(IV) CHLORIDE
Not Active: IC50 [1] | Ki [1] | IC50 [2] | Ki [2] | IC50 [3] | Ki [3] | IC50 [4] | Ki [4] | IC50 [5] | Ki [5] | IC50 [6] | Ki [6] | IC50 [7] | Ki [7] | IC50 [8] | Ki [8] | IC50 [9] | Ki [9]
